Test results reported in article PMC6544628, “Plasmodium pseudo-Tyrosine Kinase-like binds PP1 and SERA5 and is exported to host erythrocytes” (Scientific Reports, 2019).

Target: T1, pTKL_KD_WT (PfpTKL kinase domain) (Plasmodium falciparum, UniProt Q8IIT5)
T1 construct: gene pTKL
Conditions: labelled compound (ATP immobilised on agarose); protein dialyzed against PBS with 1 mM DTT and 1 mM EDTA

T1 sequence (Q8IIT5 1098-1501): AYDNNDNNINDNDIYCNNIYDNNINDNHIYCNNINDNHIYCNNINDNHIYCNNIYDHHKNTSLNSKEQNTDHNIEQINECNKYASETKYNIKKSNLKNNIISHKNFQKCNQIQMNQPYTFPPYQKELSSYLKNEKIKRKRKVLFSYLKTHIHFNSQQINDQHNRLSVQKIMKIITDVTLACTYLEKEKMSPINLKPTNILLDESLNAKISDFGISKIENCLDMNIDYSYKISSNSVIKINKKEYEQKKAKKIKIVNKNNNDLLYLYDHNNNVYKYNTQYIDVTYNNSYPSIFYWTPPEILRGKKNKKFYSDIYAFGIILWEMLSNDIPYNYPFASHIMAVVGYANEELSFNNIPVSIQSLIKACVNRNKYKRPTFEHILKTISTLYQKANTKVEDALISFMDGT

SMILES: Nc1ncnc2c1ncn2[C@@H]1O[C@H](COP(=O)(O)OP(=O)(O)OP(=O)(O)O)[C@@H](O)[C@H]1O [ATP]
- ATP-agarose bead pull-down, anti-His6 western blot: The PfpTKL pseudo-KD was able to bind ATP but did not display any kinase activity
